Columns and labels:
[1] = tested on: SLC37A2 expression in MCF-7 cells; test: SLC37A2 mRNA expression by RT-qPCR in MCF-7 cells; assay type: cell-based
Procedure: (§1) For reverse transcription quantitative polymerase chain reaction (RT-qPCR) assays, 5×10^5 cells/well were plated in six-well dishes, serum starved in modified IMEM for one day before treatment. RNA was extracted using TriPure reagent (Roche, Basel, Switzerland) and cDNA was created using the qScript cDNA SuperMix kit (Quanta Biosciences, Beverly, Mass.). Relative expression levels were determined by qPCR assays performed on a Roche Light-Cycler II using SYBR green master-mix (Roche, Basel, Switzerland). Target gene quantification levels were normalized to the expression of standard housekeeper genes: TBP, ACTB, 18S, and/or GAPDH.
(§2) PR cooperation with one or more RUNX factors may be a mechanism for promoter selection by uniquely modified receptors. The family of RUNX transcription factors (RUNX1, 2, and 3) has complex roles in development and tumor formation with both tumor suppressive and tumor-promoting activities. […] From the GSEA results, SLC37A2, a candidate PR target gene containing multiple RUNX2 binding motifs immediately upstream and within the gene, was identified (FIG. 7A). SLC37A2 is a glucose-6-phosphate transporter expressed in monocytes as well as breast and cervical tissues. […] PR/progestin-dependent regulation of SLC37A2 mRNA expression in multiple cell line models was thus measured. […]

breast cancer = conditions: human, in vivo; cited from earlier work
[2] = tested on: SLC37A2 expression in BT474 cells; test: SLC37A2 mRNA expression by RT-qPCR in BT474 cells; assay type: cell-based; conditions: unmodified BT474 cells, progestin plus onapristone
Procedure: as §1, §2

BT474 cells = test: Mammosphere formation in unmodified HER2+ BT474 cells; assay type: cell-based
Procedure: Primary Mammospheres: Adherent cells were washed with PBS and dissociated enzymatically in 0.25% trypsin-EDTA (Invitrogen Corporation, Carlsbad, Calif.). Cells were sieved through a 40-μm sieve (BD FALCON, BD Biosciences, Bedford, Mass.) and analyzed microscopically for single-cellularity. Single cells were plated in ultra-low attachment plates (Corning, Inc., Corning, N.Y.) and cultured in a humid incubator. […] Mammosphere Forming Efficiency (MFE) % was calculated by the number of mammospheres per well/number of cells seeded per well.
Secondary Mammospheres: Primary mammospheres were collected by centrifugation (5 min, 1000 rpm), and dissociated enzymatically in 0.25% typsin-EDTA. Cells were sieved through a 40-μm tip strainer (Bel-Art SP Scienceware, South Wayne, N.J.) and analyzed microscopically for single-cellularity. […] Mammosphere Forming Efficiency (MFE) % was calculated by the number of mammospheres per well/number of cells seeded per well.
The results were also validated in unmodified ER+/PR+BT474 cells. […] In this “high-kinase” context, PRs are readily phosphorylated on Ser294.

ERK1/2 = test: Breast tumor explants, phospho-ERK1/2 IHC; assay type: cell-based, human; conditions: progesterone 10 nM, 2 hours

## CC#C[C@]1(O)CC[C@H]2[C@@H]3CCC4=CC(=O)CCC4=C3[C@@H](c3ccc(N(C)C)cc3)C[C@@]21C [mifepristone]
[1]; MCF-7 overexpressing K388R PR, progestin plus mifepristone
  effect on progestin-upregulated SLC37A2 expression: blocked
[1]; cells expressing KR PRs, RU486 treatment alone
  agonist activity on SLC37A2 expression, antiprogestin alone: weak partial agonist activity
Breast cancer
  outcome in clinical trials for breast cancer: has not been successful

## CN(C)c1ccc([C@H]2C[C@]3(C)[C@@H](CC[C@]3(O)CCCO)[C@@H]3CCC4=CC(=O)CCC4=C32)cc1 [onapristone]
[2]
  effect on progestin-stimulated SLC37A2 mRNA expression: effectively blocked
BT474 cells; BT474, onapristone 100 or 1000 nM without or with R5020 10 nM
  effect on basal and progestin-stimulated primary mammosphere formation: effectively reduced both basal and progestin-stimulated primary mammosphere formation
BT474 cells; BT474, onapristone-containing media
  secondary mammosphere formation: failed to form

## CC(=O)[C@H]1CC[C@H]2[C@@H]3CCC4=CC(=O)CC[C@]4(C)[C@H]3CC[C@]12C [progesterone]
ERK1/2
  activation of ERK1/2 (phospho-ERK1/2) in tumor explants: accompanied by activation of ERK1/2

— patent US10942183B2, “Methods of detecting progesterone receptor and of detecting an expression level” (REGENTS OF THE UNIVERSITY OF MINNESOTA, priority 2017, dated 2021)
